Laboratory results: US12060349B2, “Glucosylceramide synthase inhibitors” (Genzyme Corporation, priority 2012, dated 2024)
Where two headings read alike, the source gives them in different places.

Experiments:
[1] = target: T1, glucosylceramide synthase (Homo sapiens, UniProt Q16739); assay: microsomal assay measuring conversion of ceramide to glucosylceramide by HPLC (GCS IC50); type: biochemical; conditions: concentration causing 50% inhibition of glucosylceramide synthase activity
T1 construct: Microsomes were isolated from A375 human melanoma cells; endogenous in cells; host or cells: A375 human melanoma cells (microsomal fraction, 100,000 g pellet)
T1 sequence (Q16739 1-394): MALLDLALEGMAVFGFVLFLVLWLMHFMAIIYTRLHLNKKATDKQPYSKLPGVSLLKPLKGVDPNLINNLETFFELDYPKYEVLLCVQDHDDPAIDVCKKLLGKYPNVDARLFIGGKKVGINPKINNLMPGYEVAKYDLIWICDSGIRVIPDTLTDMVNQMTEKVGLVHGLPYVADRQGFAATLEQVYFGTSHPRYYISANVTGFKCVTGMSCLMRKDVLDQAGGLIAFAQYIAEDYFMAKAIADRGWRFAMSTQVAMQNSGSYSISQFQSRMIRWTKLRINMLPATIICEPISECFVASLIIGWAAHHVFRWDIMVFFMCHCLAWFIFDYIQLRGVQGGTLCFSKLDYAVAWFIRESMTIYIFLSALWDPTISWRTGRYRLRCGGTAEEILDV
Summary of the method: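 Microsomal preparation assayed for glucosylceramide synthase by direct HPLC measurement of ceramide conversion to glucosylceramide. GCS IC50 is the compound concentration giving 50% inhibition of enzyme activity.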

[2] = tested on: GM3 expression on the cell surface, B16 mouse melanoma cells; assay: cell based phenotypic assay, cell surface GM3 by antibody mediated immunofluorescence, B16 (GM3 B16 IC50); conditions: 50% inhibition of GM3 expression on the cell surface
Summary of the method: (§1)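 Both lines undergo the phenotypic GM3 assay, and viability is recorded from that same cell-based run.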

[3] = tested on: GM3 expression on the cell surface, C32 human melanoma cells; assay: cell based phenotypic assay, cell surface GM3 by antibody mediated immunofluorescence, C32 (GM3 C32 IC50); conditions: 50% inhibition of GM3 expression on the cell surface
Summary of the method: as §1

B16 mouse melanoma cells = assay: cell viability in the B16 cell-based assay (Viability, B16 IC50)
Summary of the method: as §1

C32 human melanoma cells = assay: cell viability in the C32 cell-based assay (Viability, C32 IC50); conditions: concentration causing 50% cell death, values greater than 10 represent a lack of cell death
Summary of the method: as §1

[4] = Mus musculus, B16 mouse melanoma cells, read-out: GM3 B16 IC50
[5] = Homo sapiens, C32 human melanoma cells, read-out: GM3 C32 IC50
[6] = Mus musculus, B16, B16 cells, concentration causing 50% cell death, values greater than 10 represent a lack of cell death, read-out: Viability, B16 IC50
[7] = Homo sapiens, C32, C32 cells, read-out: Viability, C32 IC50
[8] = B16 mouse melanoma cells, read-out: GM3 B16 IC50
[9] = C32 human melanoma cells, read-out: GM3 C32 IC50
[10] = Mus musculus, read-out: GM3 B16 IC50, B16 mouse melanoma cells
[11] = Homo sapiens, read-out: GM3 C32 IC50, C32 human melanoma cells
[12] = Mus musculus, B16, read-out: Viability, B16 IC50
[13] = Homo sapiens, C32, read-out: Viability, C32 IC50, C32 cells

IC50 [2, 4] [nM] | IC50 [3, 5] [nM] | Compound | IC50 [1] [nM] | IC50 (B16 mouse melanoma cells; [6]) [nM] | IC50 (C32 human melanoma cells; [7]) [nM] | further results
75 | 3.01 | CC(C)(NC(=O)OC1CCN2CCC1CC2)c1ccc(-c2ccc(C(=O)N3CCCCC3)cc2)cc1 (stereo not shown) [Example 263, 1-Azabicyclo[3.2.2]nonan-4-yl 2-(4′-(piperidine-1-carbonyl)biphenyl-4-yl)propan-2-ylcarbamate] | 14.5 | ≥ 10000 | 1000 | –
80.8 | 6.08 | CC(C)(NC(=O)OC1CCN2CCC1CC2)c1ccc(-c2ccc(CCc3c[nH]nn3)cc2)cc1 (stereo not shown) [Example 228, 1-Azabicyclo[3.2.2]nonan-4-yl (2-(4′-(2-(1H-1,2,3-triazol-4-yl)ethyl)-[1,1′-biphenyl]-4-yl)propan-2-yl)carbamate] | 18.2 | 7650 | 3160 | –
– | – | 1-(4-(4-Fluorophenoxy)pyrimidin-2-yl)-N-(3-methylquinuclidin-3-yl)piperidine-4-carboxamide [Example 121] | 1.33 | – | – | IC50 [2, 8]: 26.3 nM; IC50 [3, 9]: 0.093 nM; IC50 (B16 mouse melanoma cells; B16 cells, concentration causing 50% cell death, values greater than 10 represent a lack of cell death, read-out: Viability, B16 IC50): 7650 nM; IC50 (C32 human melanoma cells; C32 cells, read-out: Viability, C32 IC50): 100 nM
– | – | O=C(NC1(c2ccc(-c3ccc(COCc4cncnc4)cc3)cc2)CC1)OC1CN2CCC1CC2 (stereo not shown) [Example 219, Quinuclidin-3-yl (1-(4′-((pyrimidin-5-ylmethoxy)methyl)-[1,1′-biphenyl]-4-yl)cyclopropyl)carbamate] | 46.6 | – | – | IC50 [2, 10]: 118 nM; IC50 [3, 11]: 20.9 nM; IC50 (B16 mouse melanoma cells; [12]): ≥ 10000 nM; IC50 (C32 human melanoma cells; [13]): ≥ 10000 nM
81.6 | 1.86 | CC1(COc2ccc(-c3ccc(C(C)(C)NC(=O)OC4CCN5CCC4CC5)cc3)cc2)COC1 (stereo not shown) [Example 192, 1-Azabicyclo[3.2.2]nonan-4-yl (2-(4′-((3-methyloxetan-3-yl)methoxy)-[1,1′-biphenyl]-4-yl)propan-2-yl)carbamate] | 5.69 | 5840 | 1000 | –
8.94 | 0.14 | CC1(NC(=O)C2CCN(c3nccc(Oc4ccc(F)cc4)n3)CC2)CCN2CCC1CC2 (stereo not shown) [Example 115, 1-(4-(4-Fluorophenoxy)pyrimidin-2-yl)-N-(4-methyl-1-azabicyclo[3.2.2]nonan-4-yl)piperidine-4-carboxamide] | 2.45 | 9300 | 46.4 | –
226 | 2.26 | CC1(NC(=O)C2(F)CCN(c3nccc(OC4CCOCC4)n3)CC2)CCN2CCC1CC2 (stereo not shown) [Example 123, 4-Fluoro-N-(4-methyl-1-azabicyclo[3.2.2]nonan-4-yl)-1-(4-((tetrahydro-2H-pyran-4-yl)oxy)pyrimidin-2-yl)piperidine-4-carboxamide] | 42.3 | ≥ 10000 | 1000 | –
335 | 3.88 | CC1(NC(=O)C2CCN(c3ccnc(-c4ccc(F)cc4)n3)CC2)CCN2CCC1CC2 (stereo not shown) [Example 51, 1-(2-(4-Fluorophenyl)pyrimidin-4-yl)-N-(4-methyl-1-azabicyclo[3.2.2]nonan-4-yl)piperidine-4-carboxamide] | 46.6 | 8260 | 3160 | –
660 | 40.4 | CC(C)(NC(=O)OC1CCN2CCC1CC2)c1ccc(Oc2ccc(C(=O)N3CCOCC3)cc2)cc1 (stereo not shown) [Example 282, 1-Azabicyclo[3.2.2]nonan-4-yl 2-(4-(4-(morpholine-4-carbonyl)phenoxy)phenyl)propan-2-ylcarbamate] | 479 | ≥ 10000 | 3160 | –
– | – | CC(C)(NC(=O)OC1CN2CCC1CC2)c1ccc(-c2ccc(CCc3c[nH]nn3)cc2)cc1 (stereo not shown) [Example 227, Quinuclidin-3-yl (2-(4′-(2-(1H-1,2,3-triazol-4-yl)ethyl)-[1,1′-biphenyl]-4-yl)propan-2-yl)carbamate] | 27 | – | – | IC50 [2, 10]: 122 nM; IC50 [3, 11]: 10.4 nM; IC50 (B16 mouse melanoma cells; [12]): ≥ 10000 nM; IC50 (C32 human melanoma cells; [13]): 1000 nM
1440 | 99.9 | COCCCOc1cnc(-c2ccc(C(C)(C)NC(=O)N3CCN4CCC3CC4)cc2)cn1 [Example 322, N-(2-(4-(5-(3-methoxypropoxy)pyrazin-2-yl)phenyl)propan-2-yl)-1,4-diazabicyclo[3.2.2]nonane-4-carboxamide] | 1070 | ≥ 10000 | 1000 | –
– | – | O=C(NC1CCN2CCC1CC2)N1CCN(c2ccccc2)CC1 (stereo not shown) [Example 8, N-(1-Azabicyclo[3.2.2]nonan-4-yl)-4-phenylpiperazine-1-carboxamide] | 3310 | – | – | IC50 [2, 8]: > 10000 nM; IC50 [3, 9]: 518 nM; IC50 (B16 mouse melanoma cells; Mus musculus, B16 cells, concentration causing 50% cell death, values greater than 10 represent a lack of cell death, read-out: Viability, B16 IC50): ≥ 10000 nM; IC50 (C32 human melanoma cells; Homo sapiens, C32 cells, read-out: Viability, C32 IC50): ≥ 10000 nM
2660 | 38.2 | CC1(NC(=O)N2CCN(c3cccc(C4CCCCC4)c3)CC2)CCN2CCC1CC2 (stereo not shown) [Example 29, 4-(3-Cyclohexylphenyl)-N-(4-methyl-1-azabicyclo[3.2.2]nonan-4-yl)piperazine-1-carboxamide] | 309 | 7810 | 1000 | –

Compound | IC50 [2, 4] [nM] | IC50 [3, 5] [nM] | IC50 [1] [nM] | IC50 (B16 mouse melanoma cells; [6]) [nM] | IC50 (C32 human melanoma cells; [7]) [nM] | further results
CC1(NC(=O)C2(F)CCN(c3cnc(Oc4ccc(F)cc4)cn3)CC2)CN2CCC1CC2 (stereo not shown) [Example 133, 4-Fluoro-1-(5-(4-fluorophenoxy)pyrazin-2-yl)-N-(3-methylquinuclidin-3-yl)piperidine-4-carboxamide] | 467 | 4.83 | 45.9 | ≥ 10000 | 1000 | –
COCCCc1ccc(-c2ccc(C3(NC(=O)NC4(C)CN5CCC4CC5)CC3)cc2)cc1 (stereo not shown) [Example 214, 1-(1-(4′-(3-Methoxypropyl)-[1,1′-biphenyl]-4-yl)cyclopropyl)-3-(3-methylquinuclidin-3-yl)urea] | 32.9 | 1.26 | 3.29 | ≥ 10000 | ≥ 10000 | –
O=C(N1CCN(c2ccc(-c3ccccc3)cc2)CC1)N1CCN2CCC1CC2 [Example 5, (4-([1,1′-Biphenyl]-4-yl)piperazin-1-yl)(1,4-diazabicyclo[3.2.2]nonan-4-yl)methanone] | 2000 | 2000 | 30000 | 2000 | 2000 | –
CC1(NC(=O)C2CCN(c3ncc(F)c(-c4ccc(F)cc4)n3)CC2)CN2CCC1CC2 (stereo not shown) [Example 54, 1-(5-Fluoro-4-(4-fluorophenyl)pyrimidin-2-yl)-N-(3-methylquinuclidin-3-yl)piperidine-4-carboxamide] | 106 | 0.0902 | 0.734 | 5130 | 8040 | –
CCC1(NC(=O)N2CCN(c3cccc(-c4ccccc4)c3)CC2)CN2CCC1CC2 (stereo not shown) [Example 21, 4-([1,1′-Biphenyl]-3-yl)-N-(3-ethylquinuclidin-3-yl)piperazine-1-carboxamide] | 168 | 25.2 | 288 | 7230 | 3160 | –
COCCOCc1ccc(-c2ccc(C3(NC(=O)N[C@@]4(C)CN5CCC4CC5)CC3)cc2)cc1 [Example 211, (R)-1-(1-(4′-((2-Methoxyethoxy)methyl)-[1,1′-biphenyl]-4-yl)cyclopropyl)-3-(3-methylquinuclidin-3-yl)urea] | 683 | 72 | 938 | ≥ 10000 | 3160 | –
CC1(NC(=O)C2CCN(c3ccc(-c4ccccc4)cc3)CC2)CN2CCC1CC2 (stereo not shown) [Example 37, 1-([1,1′-Biphenyl]-4-yl)-N-(3-methylquinuclidin-3-yl)piperidine-4-carboxamide] | 1800 | 131 | 1550 | 7050 | 6900 | –
